Assays:
C165S AhpC-SOH = C165S AhpC-SOH (Salmonella typhimurium, UniProt P0A251, C166S); experiment: Labeling of C165S AhpC-SOH monitored by ESI-TOF MS; type: biochemical, bacteria
Description: The C165S AhpC was reduced in 10 mM DTT at room temperature for […] and the DTT was then removed by passing the protein solution through a Bio-Gel spin column equilibrated with ddH2O. The protein concentration was measured based on absorbance at 280 nm using the extinction coefficient 24,300 (M^−1 cm^−1). Typically, 200-400 μM C165S AhpC protein was oxidized to —SOH by incubating with 2 equivalents H2O2 for […] at r.t. with mixing. The excess H2O2 was removed using Bio-Gel spin columns equilibrated with ddH2O.
The C165S AhpC-SOH protein generated as described above was diluted to 50 μM in 50 mM Bis-tris-citric acid buffer (pH 7.4) containing 5 mM (final concentration) of reagent 1. After 3 h incubation with mixing, 30 μL aliquot of reaction mixture was passed through a Bio-Gel column equilibrated with 0.1% formic acid for ESI-TOF MS analysis. […] The covalent C165S AhpC-1 adduct was incubated with 50 mM-1 M hydroxylamine (stock 1N hydroxylamine, pH 8.0-8.5, adjusted by adding 2 N NaOH or 1 N ammonium bicarbonate) for 1 h at 37° C. before passing through the Bio-Gel column for ESI-TOF MS analysis.
The C165S AhpC-SOH protein was immediately aliquot to appropriate buffers: 50 mM Bis-tris-citric acid pH 7.4, 8.5, and 9.5, and 25 mM critic acid-Na2HPO4 buffers pH 5.5, and 6.5. Final concentrations of 50 μM protein and 5 mM labeling reagents (dimedone or 2) were used for all reactions. Dimedone stock was made in 0.5 M Bis-tris and DMSO (v:v=1:1) to pre-buffer its acidity around 6.5 before adding it to the reaction buffers. Final DMSO concentration during labeling was 0.5%. At the end of the incubation time (4 h for data in FIG. 1—pH 7.4 and 8.5; 90 min for data in FIG. S5A—pH 5.5-9.5), 30 μl, reaction mixture at each pH was passed through a Bio-Gel spin column and analyzed by ESI-TOF MS. Data were fit using SigmaPlot 11.0 and the user defined equation below to obtain the pKa: […]
The C165S AhpC-SOH was incubated with increasing concentrations of 2 (0.2, 0.5, 1, 5, and 10 mM) for 2 h in 50 mM Bis-tris-citric acid (pH 7.4) at r.t. The reaction mixture (30 μL) was passed through a Bio-Gel spin column and analyzed by ESI-TOF MS. Data were fit to a hyperbolic equation to determine K0.5 using SigmaPlot 11.0.
C165S AhpC-SOH protein was first labeled by 2 at pH 9.5 for 1 h and passed successively through three Bio-Gel spin columns equilibrated with PBS to remove the unreacted 2. Near 100% labeling of AhpC was configured by ESI-TOF MS. The C165S AhpC-2 adduct concentration was measured at 280 nm using the extinction coefficient 24,300 (M^−1 cm^−1) and then diluted in PBS to a final concentration of 50 μM. Click reaction was conducted by adding the following reagents in order: biotin-OEG11-azide (1 mM, final, from 50 mM stock in DMSO), TCEP (2 mM, final, from 100 mM stock freshly made in H2O), TBTA (0.1 mM, final, from 1.7 mM stock made in 1:4 DMSO/t-butanol) and CuSO4 (1 mM, final, from 50 mM stock in H2O). The mixture was incubated at r.t. for 2 h and then 30 μL of reaction mixture was passed through a Bio-Gel column equilibrated with 0.1% formic acid for ESI-TOF MS analysis. The biotin moiety was removed by hydroxylamine treatment as described above and the reaction products were analyzed by ESI-TOF MS.
(§1) ESI-TOF-MS analysis was performed on Agilent MSD TOF system in positive ion mode with the following settings: capillary voltage (VCap) 3500 V, nebulizer gas 30 psig, drying gas 5.0 L min^−1; fragmentor 140 V; gas temperature 325° C. The samples were injected at a flow rate of 20 μL min^−1, using a syringe pump (KD Scientific). The averaged MS spectra were deconvoluted using the Agilent MassHunter Workstation Software v B.01.03.

[1] = molecular target: C165S AhpC-SH, C165S AhpC-SO2H and —SO3H, WT AhpC-S—S-AhpC (Salmonella typhimurium, UniProt P0A251, C166S); experiment: Control experiments using AhpC-SH, AhpC-SO2/3H and WT AhpC proteins (ESI-TOF MS); type: biochemical, bacteria; conditions: pH 9.5
Description: (§2) Reduced form of C165S AhpC(C165S AhpC-SH), hyperoxidized protein (C165S AhpC-SO2H and —SO3H) and WT AhpC (disulfide crosslinked dimer, […]) were incubated with 1 (5 mM) for 1.5 h at r.t., pass through the Bio-Gel spin column and analyzed by ESI-TOF MS. C165S AhpC-SO2H and —SO3H were generated by incubating C165S AhpC-SH (250 μM) in ddH2O with 20 equivalents H2O2 for 1 h at r.t. with mixing. The excess H2O2 was removed using Bio-Gel spin columns and protein concentration was determined based on absorbance at 280 nm using the extinction coefficient 24,300 (M^−1 cm^−1).
as §1

[2] = tested on: —SOH proteins in NIH 3T3 cell lysates; experiment: Labeling of —SOH proteins in NIH 3T3 cell lysates (click biotinylation, Western blot); type: biochemical; conditions: for labeling of lysate proteins (streptavidin-HRP signal): 5 mM
Description: NIH 3T3 cells were cultured to 95% confluence in complete media (DMEM High Glucose (Invitrogen) supplemented with 10% fetal bovine serum (FBS, Invitrogen) and 1% penicillin & streptomycin (Invitrogen)). Cells were washed with PBS three times and lysed using 5 mM of 2 in lysis buffer (50 mM NaCl, 1 mM EDTA, 1 mM EGTA, 10% Glycerol, 1% Triton X-100, 25 mM NaF, 10 μM ZnCl2, supplemented with protease and phosphatase inhibitor tablets (Roche)). Lysis buffer was made in 50 mM citric acid/Na2HPO4 when labeling was carried out at pH 5.5 and 7.4, and in 50 mM NaHCO3/Na2CO3 for labeling at pH 9.5. Lysates were incubated for 2 h at r.t. and then quenched by adding cold MeOH/CHCl3^[1] to remove excess 2.
Cells were lysed using lysis buffer (pH 7.4) supplemented with 2 (5 mM) as described above. The labeling was allowed to proceed at r.t. for 2 h before quenching with MeOH/CHCl3. Protein pellets precipitated from 200 μL lysate were resuspended in 50 μL, 1% SDS in PBS, sonicated for 30 s and finally heated at 95° C. for 5 mins. Protein concentration was measured using Bio-Rad protein assay (SDS concentration in the assay 0.001%) and normalized to the same concentration. Click reaction was performed using the solubilized lysate proteins according to the procedures described above. After 2 h incubation, 15 μL reaction aliquot from each sample was mixed with 5 μL sample buffer (with β-mecaptoethanol) for SDS-PAGE and Western blot analysis. Biotinylated proteins were probed using Streptavidin-HRP. In control experiments, lysates were pre-reduced with 10 mM TCEP at pH 7.4 for 1 h at r.t. before the addition of 2; lysates prepared in the absence of 2 with or without click reaction were also included in the SDS-PAGE and Western blot analysis.

SCC-61 cells [3] = experiment: MTT assay (cell viability); type: cell-based; conditions: 1 h incubation, 1-20 mM
Description: MTT (3-(4,5-dimethylthiazol-2-yl)-2,5-diphenyltetrazolium bromide) assay was used to test the SCC-61 cell viability when incubated with dimedone or 2 for 1 h. SCC-61 cells were seeded in a 96-well plate at a density of 5,000 per well in 50 μL, and incubated overnight. Dimedone or 2 (50 μL) was added to each well at final concentrations of 1, 2.5, 5, 10, and 20 mM. Plates were then incubated for 1 h at 37° C. in a humidified atmosphere with 5% CO2. MTT labeling reagent (Roche; 5 mg/ml in PBS, 10 μL) was added to each well, and the plate was incubated for 4 h at 37° C. The solubilization solution (100 μL) was then added to each well for overnight incubation at 37° C. The following day, absorbance was measured at 570 nm and all experiments were repeated twice. The resulting curves were fitted using SigmaPlot software to a sigmoidal dose-response equation to determine the IC50. The IC50 represents the concentration of chemical probe causing a 50% reduction in cell viability.

NIH 3T3 cells = experiment: DCF assay (intracellular ROS level); type: cell-based; conditions: 10 mM, 2 h
Description: NIH 3T3 cells cultured in 60-mm dishes were serum starved overnight and incubated with 10 mM dimedone, reagent 2 or 1% DMSO individually for 2 h. 5-(and-6)-carboxy-2′,7′-dichloro-dihydrofluorescein diacetate (carboxy-H2DCFDA) (100 μM; Invitrogen) was added to cells at room temperature after the incubation. The cells were then immediately washed twice with PBS and visualized with Arcturus PixCell II laser capture microscope using 20× objective.

SCC-61 cells [4] = experiment: Cell membrane permeability assay; type: cell-based; conditions: 10 mM, 2 h
Description: SCC-61 cells were cultured to 95% confluence in complete media (DMEM/F12 High Glucose (Invitrogen) supplemented with 10% fetal bovine serum (FBS, Invitrogen), 1% penicillin & streptomycin (Invitrogen)). Cells were washed with HBSS buffer (pH 7.4) three times and incubated with 10 mM probe 2 in HBSS at r.t. for 2 h. Cells incubated in HBSS without 2 were included as controls. After the incubation, cells were carefully washed by HBSS three times to remove excess 2 and lysed with the lysis buffer described above except in the absence of 2. Lysates were incubated at r.t. for additional 2 h to ensure complete labeling prior to the addition of cold MeOH/CHCl3 for protein precipitation. The denatured proteins were resolubilized in 1% SDS (in PBS) for the click reaction, which was then followed by Western-blot analysis as described above.

[5] = tested on: C165S AhpC-SH, C165S AhpC-SO2H and —SO3H, WT AhpC-S—S-AhpC; experiment: Control experiments using AhpC-SH, AhpC-SO2/3H and WT AhpC proteins (ESI-TOF MS); type: biochemical, bacteria; conditions: 5 mM, pH 7.4, 1.5 h at r.t.
Description: as §2, §1

[6] = cited from earlier work

Chain of C165S AhpC-SOH (P0A251 whole entry C166S): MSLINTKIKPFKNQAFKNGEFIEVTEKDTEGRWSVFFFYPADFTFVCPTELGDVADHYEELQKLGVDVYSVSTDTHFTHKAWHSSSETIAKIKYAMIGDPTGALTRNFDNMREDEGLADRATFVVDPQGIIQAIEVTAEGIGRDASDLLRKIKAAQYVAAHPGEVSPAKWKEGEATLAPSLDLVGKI
Chain of C165S AhpC-SH, C165S AhpC-SO2H and —SO3H, WT AhpC-S—S-AhpC (Salmonella typhimurium, UniProt P0A251, C166S) (P0A251 2-187 C166S): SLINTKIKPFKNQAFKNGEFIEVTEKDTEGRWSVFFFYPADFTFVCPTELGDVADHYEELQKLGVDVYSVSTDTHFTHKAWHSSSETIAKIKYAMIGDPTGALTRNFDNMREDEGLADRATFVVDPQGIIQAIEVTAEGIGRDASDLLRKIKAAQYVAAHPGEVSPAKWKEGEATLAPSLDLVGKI

| SMILES | reactivity with AhpC-SOH as pH increases (C165S AhpC-SOH; higher pH (up to 9.5)) | reactivity with AhpC-SOH at low pH (C165S AhpC-SOH; pH 5.5 and 6.5) | K0.5 (hyperbolic fit of labeling vs probe concentration) (C165S AhpC-SOH; pH 7.4, 2 h, r.t., 0.2-10 mM probe) [mM] | labeling of —SOH compared with dimedone (C165S AhpC-SOH; pH 7.4 and 8.5, 50 μM protein, 5 mM reagent, 4 h) | adduct formation with reduced form of C165S AhpC [1] | labeling of lysate proteins (streptavidin-HRP signal) ([2]; pH 5.5) | labeling of lysate proteins (streptavidin-HRP signal) ([2]; pH 7.4 and 9.5) | selectivity of labeling in cell lysates ([2]; pH 7.4, lysates pre-reduced with TCEP as control) | effect on cell viability (SCC-61 cells [3]) | intracellular ROS level (DCF) (NIH 3T3 cells) | cell permeability (biotin signal after click reaction) (SCC-61 cells [4]) | labeling of C165S AhpC-SOH (adduct product peak) (C165S AhpC-SOH; AhpC 50 uM, reagent 5 mM, pH 7.4, 3 h) | reaction with —SH, —S—S—, —SO2/3H, or other amino acid residues [5] | enol content ([6]; in aqueous solution) [%] | reactivity at mildly acidic or basic conditions compared to pH 7.4 (C165S AhpC-SOH; data not shown) | IC50 (SCC-61 cells [3]; read-out: IC50 (50% reduction in cell viability)) [mM] | keto-enol tautomerism state ([6]; reported) | pKa for the carbon between keto groups ([6]; reported) |
| --- | --- | --- | --- | --- | --- | --- | --- | --- | --- | --- | --- | --- | --- | --- | --- | --- | --- | --- |
| C#CCCOC(=O)CC(C)=O [compound 2, but-3-yn-1-yl 3-oxobutanoate] | becomes highly reactive | reacts very slowly | 3.0 ± 0.3 | Increased labeling | no adduct formation | no visible signal | Nearly equal labeling | selective towards —SOH | did not significantly affect cell viability | did not alter the basal level of ROS | cell permeable | – | – | – | – | – | – | – |
| COC(=O)CC(C)=O [compound 1, methyl acetoacetate] | – | – | – | – | – | – | – | – | – | – | – | labeling of C165S AhpC-SOH | did not react | 7.4 | – | – | – | – |
| CC1(C)CC(=O)CC(=O)C1 [dimedone, 5,5-dimethyl-1,3-cyclohexanedione, reference compound] | – | – | – | – | – | – | – | – | – | significant increase in ROS | – | – | – | – | slight increase in reactivity | 5.3 ± 0.2 | exclusively in the enol state | 4.3 |
